The results in this text go back to ChEMBL document CHEMBL1649237, “IND-6, a highly divergent IND-type metallo-beta-lactamase from Chryseobacterium indologenes strain 597 isolated in Burkina Faso” (2009).

The structures appear in SMILES notation. Converted amounts (≈) assume the structure as drawn.

Common to all, as to type: functional
For assay [1], the system named is Chryseobacterium indologenes. Nature of the assay: Antimicrobial activity against Chryseobacterium indologenes 597 expressing metallo-beta-lactamase IND-6 after 18 hrs by broth microdilution method in presence of beta-lactamase inhibitor clavulanic acid. The settings on record: Chryseobacterium indologenes, 597, 18 h.
In assay [2] the test system is Chryseobacterium indologenes. Nature of the assay: Antimicrobial activity against Chryseobacterium indologenes 597 expressing metallo-beta-lactamase IND-6 after 18 hrs by broth microdilution method. As to conditions: Chryseobacterium indologenes, 597, 18 h.
Assay [3] relates to Escherichia coli. Nature of the assay: Antimicrobial activity against Escherichia coli DH5alpha harboring metallo-beta-lactamase IND-6 after 18 hrs by broth microdilution method. The settings on record: DH5[alpha].
In assay [4] the test system is Escherichia coli. Nature of the assay: Antimicrobial activity against Escherichia coli DH5alpha harboring plasmid pBC-SK after 18 hrs by broth microdilution method. As to conditions: DH5[alpha].
In assay [5] the test system is Chryseobacterium indologenes. Nature of the assay: Antimicrobial activity against Chryseobacterium indologenes 597 expressing metallo-beta-lactamase IND-6 after 18 hrs by broth microdilution method in presence of beta-lactamase inhibitor Tazobactam. The settings on record: Chryseobacterium indologenes, 597, 18 h.

As for `CC1(C)S[C@@H]2[C@H](NC(=O)[C@H](N)c3ccc(O)cc3)C(=O)N2[C@H]1C(=O)O` [AMOXICILLIN], the minimal inhibitory concentration (MIC) in assay [1] was no less than 64 µg/mL.
In the case of `CC1(C)S[C@@H]2[C@H](NC(=O)[C@H](N)c3ccccc3)C(=O)N2[C@H]1C(=O)O` [AMPICILLIN], the results for the MIC (in assay [2]; against Escherichia coli [3]) were no less than 64 µg/mL and 32 µg/mL (≈ 91.6 µM), respectively.
As to `C[C@H]1[C@H](NC(=O)/C(=N\OC(C)(C)C(=O)O)c2csc(N)n2)C(=O)N1S(=O)(=O)O` [AZTREONAM], the minimum inhibitory concentration (MIC) with Escherichia coli [3] and in the assay on Escherichia coli [4] was 0.25 µg/mL (≈ 0.574 µM) in each case.
Turning to `CO/N=C(\C(=O)N[C@@H]1C(=O)N2C(C(=O)[O-])=C(C[N+]3(C)CCCC3)CS[C@H]12)c1csc(N)n1` [CEFEPIME], the minimal inhibitory concentration (MIC) in assay [2] came to 1 µg/mL (≈ 2.08 µM); with Escherichia coli [3], 0.12 µg/mL (≈ 0.25 µM); against Escherichia coli [4], 0.03 µg/mL (≈ 0.0624 µM).
For `CO/N=C(\C(=O)N[C@@H]1C(=O)N2C(C(=O)O)=C(COC(C)=O)CS[C@H]12)c1csc(N)n1` [CEFOTAXIME], the values for the minimal inhibitory concentration (MIC) (in assay [2]; with Escherichia coli [3]; in the assay with Escherichia coli [4]) were 32 µg/mL (≈ 70.3 µM), 0.5 µg/mL (≈ 1.1 µM) and 0.12 µg/mL (≈ 0.263 µM), respectively.
As to `CO[C@@]1(NC(=O)Cc2cccs2)C(=O)N2C(C(=O)O)=C(COC(N)=O)CS[C@@H]21` [CEFOXITIN], the minimum inhibitory concentration (MIC) in assay [2] is 16 µg/mL (≈ 37.4 µM); with Escherichia coli [3], 16 µg/mL (≈ 37.4 µM); against Escherichia coli [4] it was 2 µg/mL (≈ 4.68 µM).
Turning to `CC(C)(O/N=C(\C(=O)N[C@@H]1C(=O)N2C(C(=O)[O-])=C(C[n+]3ccccc3)CS[C@H]12)c1csc(N)n1)C(=O)O` [CEFTAZIDIME], the MIC in assay [2] came to 8 µg/mL (≈ 14.6 µM); in the assay on Escherichia coli [3] it was 1 µg/mL (≈ 1.83 µM); in the assay on Escherichia coli [4], 0.12 µg/mL (≈ 0.22 µM).
Take `CO/N=C(\C(=O)N[C@@H]1C(=O)N2C(C(=O)O)=C(CSc3nc(=O)c(O)nn3C)CS[C@H]12)c1csc(N)n1` [CEFTRIAXONE]: the MIC in the assay on Escherichia coli [3] amounted to 0.12 µg/mL (≈ 0.216 µM); in the assay on Escherichia coli [4], 0.03 µg/mL (≈ 0.0541 µM).
With `CO/N=C(\C(=O)N[C@@H]1C(=O)N2C(C(=O)O)=C(COC(N)=O)CS[C@H]12)c1ccco1` [CEFUROXIME], the minimal inhibitory concentration (MIC) is no less than 64 µg/mL in assay [2], 32 µg/mL (≈ 75.4 µM) against Escherichia coli [3] and 2 µg/mL (≈ 4.71 µM) in the assay on Escherichia coli [4].
With `CC(=O)OCC1=C(C(=O)O)N2C(=O)[C@@H](NC(=O)Cc3cccs3)[C@H]2SC1` [CEPHALOTHIN], the minimum inhibitory concentration (MIC) in assay [2] is no less than 64 µg/mL; against Escherichia coli [3], 64 µg/mL (≈ 161 µM); against Escherichia coli [4], 4 µg/mL (≈ 10.1 µM).
Consider `C[C@@H](O)[C@H]1C(=O)N2C(C(=O)O)=C(SCCNC=N)C[C@H]12` [IMIPENEM ANHYDROUS], for which the results for the MIC (in assay [2]; with Escherichia coli [3]) were no less than 64 µg/mL and 1 µg/mL (≈ 3.34 µM), respectively.
For the molecule `C[C@@H](O)[C@H]1C(=O)N2C(C(=O)O)=C(S[C@@H]3CN[C@H](C(=O)N(C)C)C3)[C@H](C)[C@H]12` [MEROPENEM], the MIC amounted to 8 µg/mL (≈ 20.9 µM) in assay [2], 0.12 µg/mL (≈ 0.313 µM) in the assay with Escherichia coli [3] and 0.03 µg/mL (≈ 0.0782 µM) in the assay on Escherichia coli [4].
With `CCN1CCN(C(=O)N[C@@H](C(=O)N[C@@H]2C(=O)N3[C@@H]2SC(C)(C)[C@@H]3C(=O)O)c2ccccc2)C(=O)C1=O` [PIPERACILLIN], the minimal inhibitory concentration (MIC) in assay [2] was 4 µg/mL (≈ 7.73 µM); in assay [5] it was 4 µg/mL.
Turning to `CO[C@@]1(NC(=O)C(C(=O)O)c2ccsc2)C(=O)N2[C@@H](C(=O)O)C(C)(C)S[C@@H]21` (stereo partly specified) [TEMOCILLIN], the results for the minimal inhibitory concentration (MIC) against Escherichia coli [3] and against Escherichia coli [4] were 16 µg/mL (≈ 38.6 µM) and 4 µg/mL (≈ 9.65 µM), respectively.
As for `CC1(C)S[C@@H]2[C@H](NC(=O)[C@H](C(=O)O)c3ccsc3)C(=O)N2[C@H]1C(=O)O` [TICARCILLIN], the results for the MIC against Escherichia coli [3] and against Escherichia coli [4] were 256 µg/mL (≈ 666 µM) and 4 µg/mL (≈ 10.4 µM), respectively.
